In patent publication US20240150705A1, “POLYPHENOL INFUSED PROBIOTICS AND METHODS FOR IMPROVED GUT SURVIVABILITY, PERSISTENCE AND COLONIZATION” (THE REGENTS OF THE UNIVERSITY OF CALIFORNIA, priority 2021, published 2024):
“Also recorded” adds a separate entry of the source.

Assays:
Assay type in all cases: cell-based
[1] = tested on: L. casei cells; assay: survivability of model probiotic L. casei cells loaded with other polyphenols or mixed with catechin during simulated digestion (FIG. 6); conditions: for survivability of probiotic bacteria during simulated gastro-intestinal digestion: L. casei cells infused
Protocol: To illustrate the role of phenolic bioactives in influencing cell viability, changes in the intracellular pH and interactions of bile salts with cells were measured after simulated gastric and intestinal treatments respectively. Survivability of cells with and without infused plant extracts were evaluated during simulated gastrointestinal treatments under anaerobic conditions. Simulated gastric fluids (SGF, pH=3) were prepared by adding 0.5% w/v sodium chloride, hydrochloric acid to maintain pH and 3.2 mg/ml pepsin. 1 g of selected bacterial cells with and without infused plant extracts were separately incubated in SGF for 2 h at 37° C. and 100 rpm.
After gastric treatment, the cells were pelleted down by centrifuging at 5000 rpm for 2 min and then resuspended in the simulated intestinal fluids (SIF) containing 3.33 mg/mL calcium chloride, 5 g/L sodium chloride, 10 mM bile salts and pancreatin (100 U/ml) in 0.025 M potassium phosphate buffer (pH=7). Digestion mixtures were incubated at 37° C. and 100 rpm for 2 h. After the simulated gastric and intestinal digestions, both the phenolic infused cells and control cells were isolated by centrifuging at 5000 rpm for 2 min and will be washed three times with autoclaved 1×PBS. Viable cells were enumerated after serial dilutions on selective media plates. The viability of cells were measured in triplicates and the results of these measurements were averaged.
Survivability of probiotic cells was not improved if polyphenols were not infused in cells but only added in the same amount to the gastric fluid.

[2] = tested on: L. paracasei (LP), Lactobacillus casei (LC) and L. rhamnosus (LR) probiotic cells; assay: survivability during simulated gastrointestinal treatments (SGF 2 h, then SIF 2 h); conditions: for Stability of probiotics against gastric pH and bile salt tolerance: infusion in cells
Protocol: To illustrate the role of phenolic bioactives in influencing cell viability, changes in the intracellular pH and interactions of bile salts with cells were measured after simulated gastric and intestinal treatments respectively. Survivability of cells with and without infused plant extracts were evaluated during simulated gastrointestinal treatments under anaerobic conditions. Simulated gastric fluids (SGF, pH=3) were prepared by adding 0.5% w/v sodium chloride, hydrochloric acid to maintain pH and 3.2 mg/ml pepsin. 1 g of selected bacterial cells with and without infused plant extracts were separately incubated in SGF for 2 h at 37° C. and 100 rpm. After gastric treatment, the cells were pelleted down by centrifuging at 5000 rpm for 2 min and then resuspended in the simulated intestinal fluids (SIF) containing 3.33 mg/mL calcium chloride, 5 g/L sodium chloride, 10 mM bile salts and pancreatin (100 U/ml) in 0.025 M potassium phosphate buffer (pH=7). Digestion mixtures were incubated at 37° C. and 100 rpm for 2 h. After the simulated gastric and intestinal digestions, both the phenolic infused cells and control cells were isolated by centrifuging at 5000 rpm for 2 min and will be washed three times with autoclaved 1×PBS. Viable cells were enumerated after serial dilutions on selective media plates. The viability of cells were measured in triplicates and the results of these measurements were averaged. Live probiotic cells must reach the colon alive for colonization and related health benefits. These figures plot survivability of L. paracasei (LP), Lactobacillus casei (LC) and L. rhamnosus (LR) probiotic cells with and without infused plant extracts during simulated gastrointestinal treatments with simulated gastric fluid (SGF) for 2 h, followed by the treatment with simulated intestinal fluid (SIF) for next 2 h.

[3] = tested on: L. casei, L. paracasei and L. rhamnosus cells; assay: metabolic activity by resazurin fluorescence assay after simulated gastric fluid; conditions: infused L. casei cells, SGF
Protocol: For this assay, 6 log CFUs/ml of cells (with and without infused phenolic actives) in selective culture media was prepared. 1 mL of each of the samples were added to a flat bottom 24 well culture plates and 50 μM of resazurin was added to each well plates. Plates were sealed with PCR sealing films inside anerobic cabinet to maintain in-situ anaerobic conditions and were immediately incubated at 37° C. for 16 h. Fluorescence data was collected each 5 min at 580 nm (λex=530 nm). The reduction of resazurin was evaluated by the assay. After cells were treated with simulated gastric fluid, 1 mL of each samples was centrifugated (16,000×g for 2 min) and resuspended in 1 mL of MRS broth containing 50 μM of resazurin. Then, plate was incubated at 37° C. for 16 h and read each 5 min (530 nm/580 nm). […] The reduction of resazurin to resorufin (fluorescent form) was measured to correlate with the metabolic activity of three types of probiotic cells with different infused polyphenols and conditions, as shown in FIG. 7 through FIG. 20. The production of resorufin increases the intensity of fluorescence, while the reduction of the peak is related with the production of hydroresorufin.

Molecule	survivability of probiotic bacteria during simulated digestion ([1]; simply mixed with cells or added to gastric fluid, not infused)	survivability / stability during simulated gastro-intestinal digestion ([2]; infused cells, SGF then SIF)	Stability of probiotics against gastric pH and bile salt tolerance [2]	survivability of probiotic bacteria during simulated gastro-intestinal digestion [1]	metabolic activity after simulated gastric treatment [3]
catechin	no significant improvement in survivability	stable; also recorded: maintained their population	enhanced		
O=c1c(O)c(-c2ccc(O)c(O)c2)oc2cc(O)ccc12 [fisetin]			enhanced	Enhanced stability; also recorded: significantly enhance survivability	
COc1cc(/C=C/C(=O)CC(=O)/C=C/c2ccc(O)c(OC)c2)ccc1O [curcumin]			enhanced	Enhanced stability; also recorded: significantly enhance survivability	further suppressed
